# In patent US20260258039A1, “AROMATIC COMPOUND, METHOD FOR PREPARING SAME, AND USE THEREOF IN PREPARATION OF ESTROGEN RECEPTOR DEGRADER” (Hinova Pharmaceuticals Inc., priority 2022, published 2026):
# Biological target: T1, ER (Homo sapiens, UniProt P03372)
# T1 construct: T47D breast cancer cells were subcultured in cell culture medium; endogenous in cells; host or cells: T47D breast cancer cells
# T1 sequence (P03372 1-595): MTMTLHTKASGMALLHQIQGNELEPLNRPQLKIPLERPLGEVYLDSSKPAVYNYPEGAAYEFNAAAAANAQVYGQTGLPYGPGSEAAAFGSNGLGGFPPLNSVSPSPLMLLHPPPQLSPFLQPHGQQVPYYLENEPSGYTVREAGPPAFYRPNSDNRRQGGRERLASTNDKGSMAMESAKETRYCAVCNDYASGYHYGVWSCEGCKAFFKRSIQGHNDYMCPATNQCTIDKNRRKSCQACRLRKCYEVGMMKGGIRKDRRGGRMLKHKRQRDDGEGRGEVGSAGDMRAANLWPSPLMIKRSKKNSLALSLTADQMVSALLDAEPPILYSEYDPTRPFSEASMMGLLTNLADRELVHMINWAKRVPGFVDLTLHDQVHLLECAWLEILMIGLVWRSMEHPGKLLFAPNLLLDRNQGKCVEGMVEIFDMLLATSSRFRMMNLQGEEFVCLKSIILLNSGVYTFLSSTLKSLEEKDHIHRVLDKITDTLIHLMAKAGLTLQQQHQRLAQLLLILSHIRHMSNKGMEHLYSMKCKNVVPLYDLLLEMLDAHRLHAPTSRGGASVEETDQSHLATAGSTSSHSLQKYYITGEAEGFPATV
# Experiment: Degradation activities on ER (ELISA) in T47D breast cancer cells
# Format: cell-based
# Conditions: T47D cells, 24 h, ELISA; for DC50: concentration required to degrade 50% of the target protein; for Dmax: maximum percentage of target protein degraded, read-out: Dmax
# Method: T47D breast cancer cells were subcultured in cell culture medium, and then the cells in good growth condition were seeded into 96-well plates at 80 µL/well, with 2.5×10^4 cells per well. The cells were incubated in a 37° C., 5% CO2 incubator for 3 days. The drug was prepared into a 10 mM stock solution with dimethyl sulfoxide (DMSO). Prior to use, the stock solution was diluted with cell culture medium to obtain six final concentrations (100 nM, 25 nM, 6.25 nM, 1.56 nM, 0.39 nM, and […]), and gently mixed. Additionally, negative control wells (only containing culture medium) and positive control wells (only containing cells and DMSO) were included. After the cells were incubated in the incubator for 24 h, the cells were rinsed once with ice-cold 1×PBS. […] The plate was sealed with plastic film, and incubated in a 37° C. incubator for 2 h. The film was removed. 200 μL of 1× washing buffer was added to each well, and then the plate was shaken for 5 min. The washing buffer was discarded, and the plate was pat-dried. The plate was washed four times. 100 μL of freshly prepared detection antibody (green) was added to each well of the ELISA plate. The plate was sealed with plastic film, and then incubated in a 37° C. incubator for 1 h. The film was removed, and the detection antibody was discarded. The plate was pat-dried. 200 μL of 1× washing buffer was added to each well, and then the plate was shaken for 5 min. The washing buffer was discarded, and the plate was pat-dried. The plate was washed four times. 100 μL of freshly prepared HRP-labeled secondary antibody (red) was added to each well of the ELISA plate. The plate was sealed with plastic film, and incubated in a 37° C. incubator for 30 min. The film was removed, the secondary antibody was discarded, and the plate was pat-dried, followed by adding 200 μL of 1× washing buffer to each well. The plate was shaken for 5 min, and the washing buffer was discarded before pat-drying the plate. The plate was washed four times. 100 μl of TMB substrate was added to each well of the ELISA plate, followed by incubating in a 37° C. incubator for 5 min. 100 μL of STOP solution was added to each well of the ELISA plate, and the plate was gently shaken for a few seconds. The bottom of each well was wiped with lint-free cloth. Within 30 min after adding the STOP solution, the absorbance was read at 450 nm. […] The data were analyzed using the Dose-response equation in GraphPad Prism8 software to obtain the DC50 and Dmax values, and both of them are important indicators for measuring the degradation activities of compounds on target proteins. […] The Dmax value represents the maximum percentage of target protein that can be degraded by the compound.
Compound,DC50,Dmax
"O=C1CCC(N2Cc3cc(N4CC5(CCN(CC6CCN(c7ccc([C@@H]8c9ccc(O)cc9OC[C@@H]8c8cccc(F)c8F)cc7)CC6)CC5)C4)ccc3C2=O)C(=O)N1 (relative stereo) [Example 36, 3-(5-(7-((1-(4-(cis-3-(2,3-difluorophenyl)-7-hydroxychroman-4-yl)phenyl)piperidin-4-yl)methyl)-2,7-diazaspiro[3.5]nonane-2-yl)-1-oxoisoindol-2-yl)piperidin-2,6-dione]",< 10 nM,50 to 75%
"O=C1CCC(N2C(=O)c3ccc(N4CC5(CN(CC6CCN(c7ccc([C@@H]8c9ccc(O)cc9CC[C@@H]8c8ccccc8)cc7)CC6)C5)C4)cc3C2=O)C(=O)N1 (stereo partly drawn) [Example 3, 2-(2,6-dioxopiperidin-3-yl)-5-(6-((1-(4-((1R,2S)-6-hydroxyl-2-phenyl-1,2,3,4-tetrahydronaphthalen-1-yl)phenyl)piperidin-4-yl)methyl)-2,6-diazaspiro[3.3]heptan-2-yl)isoinodolin-1,3-dione]",> 100 nM,–
"O=C1CCC(N2Cc3cc(N4CC5(CCN(CC6CN(c7ccc(C8c9ccc(O)cc9OC[C@@H]8c8ccccc8F)cc7)C6)CC5)C4)ccc3C2=O)C(=O)N1 (stereo partly drawn) [Example 5, 3-(5-(7-((1-(4-(cis-3-(2-fluorophenyl)-7-hydroxypyran-4-yl)phenyl)azetidin-3-yl)methyl)-2,7-diazaspiro[3.5]nonane-2-yl)-1-oxoisoinodolin-2-yl)piperidin-2,6-dione]",> 100 nM,50 to 75%
O=C1CCC(N2Cc3cc(N4CCC(N5CC6(CCN(c7ccc([C@@H]8c9ccc(O)cc9OC[C@@H]8c8ccccc8)cc7)CC6)C5)CC4)ccc3C2=O)C(=O)N1 (some centres unmarked) [Example 13],< 10 nM,> 75%
O=C1CCC(N2Cc3cc(N4CCC(N5CC6(CCN(c7ccc([C@H]8c9ccc(O)cc9OC[C@H]8c8ccccc8F)cc7)CC6)C5)CC4)ccc3C2=O)C(=O)N1 (some centres unmarked) [Example 15],> 100 nM,< 50%
"O=C1CCC(N2Cc3cc(N4CCC(N5CC6(CCN(c7ccc([C@@H]8c9ccc(O)cc9CC[C@@H]8c8ccccc8F)cc7)CC6)C5)CC4)ccc3C2=O)C(=O)N1 (stereo partly drawn) [Example 19, 3-(5-(4-(7-(4-(cis-2-(2-fluorophenyl)-6-hydroxyl-1,2,3,4-tetrahydronaphthalen-1-yl)phenyl)-2,7-diazaspiro[3.5]nonane-2-yl)piperidin-1-yl)-1-oxoisoinodolin-2-yl)piperidin-2,6-dione]",< 10 nM,> 75%
"O=C1CCC(N2Cc3cc(N4CCC(N5CC6(CCN(c7ccc([C@@H]8c9ccc(O)cc9OC[C@@H]8c8ccccc8F)cc7)CC6)C5)CC4)ccc3C2=O)C(=O)N1 (stereo partly drawn) [Example 20, 3-(5-(4-(7-(4-(cis-3-(2-fluorophenyl)-7-hydroxychroman-4-yl)phenyl)-2,7-diazaspiro[3.5]nonane-2-yl)piperidin-1-yl)-1-oxoisoinodolin-2-yl)piperidin-2,6-dione]",< 10 nM,–
"O=C1CCC(N2Cc3cc(N4CCC(N5CC6(CCN(c7ccc([C@H]8c9ccc(O)cc9CC[C@H]8c8ccccc8F)cc7)CC6)C5)CC4)ccc3C2=O)C(=O)N1 (stereo partly drawn) [Example 21, 3-(5-(4-(7-(4-((1S,2R)-2-(2-fluorophenyl)-6-hydroxyl-1,2,3,4-tetrahydronaphthalen-1-yl)phenyl)-2,7-diazaspiro[3.5]nonane-2-yl)piperidin-1-yl)-1-oxoisoinodolin-2-yl)piperidin-2,6-dione]",> 100 nM,< 50%
"O=C1CCC(N2Cc3cc(N4CCC(N5CC6(CCN(c7ccc([C@@H]8c9ccc(O)cc9OC[C@@H]8c8ccccc8)cc7F)CC6)C5)CC4)ccc3C2=O)C(=O)N1 (stereo partly drawn) [Example 23, 3-(5-(4-(7-(4-(cis-3-(2-fluorophenyl)-7-hydroxychroman-4-yl)phenyl)-2,7-diazaspiro[3.5]nonane-2-yl)piperidin-1-yl)-1-oxoisoinodolin-2-yl)piperidin-2,6-dione]",10 to 50 nM,> 75%
"O=C1CCC(N2Cc3cc(N4CC5(CCN(CC6CCN(c7ccc([C@H]8c9ccc(O)cc9OC[C@H]8c8cccc(F)c8F)cc7F)CC6)CC5)C4)ccc3C2=O)C(=O)N1 (stereo partly drawn) [Example 24, 3-(5-(7-((1-(4-((3R,4S)-3-(2,3-difluorophenyl)-7-hydroxychroman-4-yl)-2-fluorophenyl)piperidin-4-yl)methyl)-2,7-diazaspiro[3.5]nonane-2-yl)-1-oxoisoinodolin-2-yl)piperidin-2,6-dione]",> 100 nM,< 50%
"Cc1ccccc1[C@H]1COc2cc(O)ccc2[C@H]1c1ccc(N2CCC(CN3CCC4(CC3)CN(c3ccc5c(c3)CN(C3CCC(=O)NC3=O)C5=O)C4)CC2)cc1 (stereo partly drawn) [Example 35, 3-(5-(7-((1-(4-(cis-7-hydroxyl-3-(o-methylphenyl)chroman-4-yl)phenyl)piperidin-4-yl)methyl)-2,7-diazaspiro[3.5]nonane-2-yl)-1-oxoisoinodolin-2-yl)piperidin-2,6-dione]",10 to 50 nM,50 to 75%
"O=C1CCC(N2Cc3cc(N4CC5(CCN(CC6CCN(c7c(F)cc([C@H]8c9ccc(O)cc9OC[C@H]8c8ccccc8F)cc7F)CC6)CC5)C4)ccc3C2=O)C(=O)N1 (stereo partly drawn) [Example 38, 3-(5-(7-((1-(2,6-difluoro-4-((3R,4S)-3-(2-fluorophenyl)-7-hydroxychroman-4-yl)phenyl)piperidin-4-yl)methyl)-2,7-diazaspiro[3.5]nonane-2-yl)-1-oxoisoindol-2-yl)piperidin-2,6-dione]",> 100 nM,< 50%
"O=C1CCC(N2Cc3cc(N4CC5(CCN(CC6CCN(c7c(F)cc([C@H]8c9ccc(O)cc9OC[C@H]8c8cccc(F)c8F)cc7F)CC6)CC5)C4)ccc3C2=O)C(=O)N1 (stereo partly drawn) [Example 39, 3-(5-(7-((1-(4-((3R,4S)-3-(2,3-difluorophenyl)-7-hydroxychroman-4-yl)-2,6-difluorophenyl)piperidin-4-yl)methyl)-2,7-diazaspiro[3.5]nonane-2-yl)-1-oxoisoinodolin-2-yl)piperidin-2,6-one]",> 100 nM,< 50%
O=C1CCC(N2Cc3cc(N4CC5(CCN(CC6CCN(c7c(F)cc([C@H]8c9ccc(O)cc9OC[C@H]8c8c(F)cccc8F)cc7F)CC6)CC5)C4)ccc3C2=O)C(=O)N1 (some centres unmarked) [Example 41],> 100 nM,< 50%
O=C1CCC(N2Cc3cc(N4CC5(CCN(CC6CCN(c7c(F)cc(C8=C(c9c(F)cccc9F)COc9cc(OCc%10ccccc%10)ccc98)cc7F)CC6)CC5)C4)ccc3C2=O)C(=O)N1 (centres unmarked) [Example 43],> 100 nM,< 50%
"O=C1CCC(N2Cc3cc(N4CC5(CCN(CC6CCN(c7ccc([C@@H]8c9ccc(O)cc9OC[C@@H]8c8ccc(F)cc8F)cc7)CC6)CC5)C4)ccc3C2=O)C(=O)N1 (stereo partly drawn) [Example 46, 3-(5-(7-((1-(4-(cis-3-(2,4-difluorophenyl)-7-hydroxychroman-4-yl)phenyl)piperidin-4-yl)methyl)-2,7-diazaspiro[3.5]nonane-2-yl)-1-oxoisoinodolin-2-yl)piperidin-2,6-dione]",10 to 50 nM,50 to 75%
"O=C1CCC(N2Cc3cc(N4CC5(CCN(CC6CCN(c7ccc([C@@H]8c9ccc(O)cc9OC[C@@H]8c8cc(F)ccc8F)cc7)CC6)CC5)C4)ccc3C2=O)C(=O)N1 (stereo partly drawn) [Example 47, 3-(5-(7-((1-(4-(cis-3-(2,5-difluorophenyl)-7-hydroxychroman-4-yl)phenyl)piperidin-4-yl)methyl)-2,7-diazaspiro[3.5]nonane-2-yl)-1-oxoisoinodolin-2-yl)piperidin-2,6-dione]",10 to 50 nM,50 to 75%
